Measured values from patent publication EP0253662B1, “Pharmaceutical compositions” (ED. GEISTLICH SÖHNE AG FÜR CHEMISCHE INDUSTRIE, priority 1986, dated 1988).
Values after ≈ are worked out from the molar mass of the structure shown.

How the values were obtained:
[1] = water-solubility; type: physicochemical; settings: in water
Experimental: However, the water-solubility of both compounds is relatively low, namely I g/litre in the case of taurolidine and 8 g/litre in the case of taurultam. Relatively large quantities of the compounds are required where toxaemia is well established and even where the compounds are administered in large volumes by intravenous infusion, low solubility can limit their use. In particular, during treatment of patients suffering from septic shock and consequent renal insufficiency, administration of significant quantities of liquid (after an initial period of volume compensation) is contra-indicated and the intravenous infusion solution should be as concentrated as possible. Where glucose is present, this is also beneficial in such cases in order to support the brain cells.

[2] = intravenous infusion tolerance (vagotonic side effects); type: in vivo
Source text: This is a surprising effect of considerable value in ensuring that taurolidine can be given intravenously at a rapid rate of infusion, for example in cases of endotoxin shock. In general, the overall intravenous tolerance of taurolidine is increased by the presence of glucose. The same advantages apply also to taurultam.

Row | Structure (SMILES) | solubility [1] | vagotonic side effects, such as meiosis, lachrymation, salivation, bradycardia and excitation ([2]; 2% aqueous taurolidine containing polyvinylpyrrolidone, administered intravenously, high rates of infusion) | vagotonic effects ([2]; administered in glucose solution rather than polyvinylpyrrolidone, intravenously)
1 | O=S1(=O)CCNCN1 [taurultam] | 8000 µg/mL (≈ 58.7 mM) | – | –
2 | O=S1(=O)CCN(CN2CCS(=O)(=O)NC2)CN1 [taurolidine] | – | short duration vagotonic side effects occur | such vagotonic effects are not observed
